The source of these data is US20110039873A1, “SUBSTITUTED PYRAZOLO[1,5-a] PYRIDINE COMPOUNDS HAVING MULTI-TARGET ACTIVITY” (priority 2009, published 2011).

Like-named read-outs stand apart in the source and are kept apart here.

The target of test [1] is T1, catalytic domain of phosphodiesterase 4B enzyme cloned from human brain (Homo sapiens, UniProt Q07343).
T1 construct: the catalytic domain of phosphodiesterase 4B enzyme; purchased Scottish Biomedical
Kind of test: PDE4 inhibition assay (PDELight). The conditions noted are these: for IC50: 5 uM cAMP, read-out: PDE 4 Inhibition (IC50 in μM). Type of test: biochemical. The procedure:
In a 96-well plate, the catalytic domain of phosphodiesterase 4B enzyme (40 mU/well) cloned from human brain (Scottish Biomedical) was combined with 5 uM cAMP substrate (Sigma). […] Using a PDELight® kit (Cambrex), the amount of AMP produced in the reaction from the hydrolysis of cAMP was quantified using PDELight AMP Detection Reagent which converts the AMP directly to ATP. The assay uses luciferase, which catalyses the formation of light from the newly formed ATP and luciferin. […] IC50 calculations were plotted using a nonlinear regression curve fit.

In test [2] the target is T2, recombinant human phosphodiesterase 10A1 enzyme (Homo sapiens, UniProt Q9Y233).
T2 construct: purchased BPS Biosciences; host or cells: Baculovirus infected Sf9 cells
Kind of test: PDE10 inhibition assay (PDELight). Type of test: biochemical. Particulars: for IC50: 1 uM cAMP, read-out: PDE 10 Inhibition (IC50 in μM); for PDE-10 inhibition (in words): Table 2. As for the experimental part:
In a 96-well plate, recombinant human phosphodiesterase 10A1 enzyme (10 U/well) expressed in Baculovirus infected Sf9 cells (BPS Biosciences) was combined with 1 uM cAMP substrate (Sigma). […] Using a PDELight® kit (Cambrex), the amount of AMP produced in the reaction from the hydrolysis of cAMP was quantified using PDELight AMP Detection Reagent which converts the AMP directly to ATP. The assay uses luciferase, which catalyses the formation of light from the newly formed ATP and luciferin. The luminescence was read on a Victor Light 1420 luminometer. IC50 calculations were plotted using a nonlinear regression curve fit.

The target of test [3] is T3, recombinant full length human JNK3 enzyme (Homo sapiens, UniProt P53779).
T3 construct: recombinant full length human JNK2 or JNK3 enzyme; purchased Upstate; host or cells: Sf21 cells
Kind of test: JNK 3 inhibition assay (ATP depletion, luciferase). The test is classed as biochemical. Particulars: for IC50: 10 uM ATP, ATF2 substrate. As for the experimental part: In a 96-well plate, recombinant full length human JNK2 or JNK3 enzyme (40 ng) expressed in Sf21 cells (Upstate) was incubated with the substrate ATF2 (3 uM) for 1 hour in the presence of 10 uM ATP. […] The ATP levels were quantified using luciferase with luminescence read on a Victor Light 1420 luminometer. IC50 calculations were plotted using a nonlinear regression curve fit.

Test [4] concerns rat chronic constriction injury (CCI) model of neuropathic pain. Kind of test: Rat chronic constriction injury (CCI) model of neuropathic pain. Type of test: in vivo. The conditions noted are these: IP, dose not given; 50% paw withdrawal threshold, von Frey. The procedure: To induce allodynia, male Sprague-Dawley rats underwent chronic constriction injury (CCI) to the sciatic nerve as described by Bennett and Xie, Pain 1988; 33(1):87-107. The plantar surface of the hind paws was stimulated with von Frey filaments (Stoelting) to induce a withdrawal response by blinded personnel. The bending force of fiber required to induce a 50% withdrawal response was calculated following CCI surgery (pre-dosing baseline). N=5-6 allodynic rats received a single IP or oral administration of test compounds or vehicle. Two hours post-dosing, 50% paw withdrawal threshold was determined again by blinded testers using von Frey filaments. The 50% withdrawal threshold prior to CCI surgery, pre-dosing (10 days post-surgery), and 2 hours post-dosing are plotted.
For selected compounds multi-day studies were perfumed with pre-determined schedules for dosing and withdrawal threshold assessments.

In test [5] the test system is Mouse BV-2 microglial cells. The test can be described thus: BV-2 glial cell assay (TNF-α and MCP-1 by Luminex). The conditions noted are these: Mus musculus, BV-2, LPS and IFN-γ activated, 20 hours. Type of test: cell-based. The procedure:
Mouse BV-2 microglial cells were seeded on 96-well plates at a concentration of 3×10^4 cells/well. Cells were activated with 100 ng/mL LPS and IFN-γ (100 ng/mL) in the presence or absence of test compounds (0-30 uM). Following incubation for 20 hours, cells were spun down and supernatant collected. The supernatant was analyzed via Luminex for the presence of TNF-α and MCP-1.

Test [6] has as its target T4, recombinant full length human JNK2 enzyme (Homo sapiens, UniProt P45984).
T4 construct: recombinant full length human JNK2 or JNK3 enzyme; purchased Upstate; host or cells: Sf21 cells
Kind of test: JNK 2 inhibition assay (ATP depletion, luciferase). The test is classed as biochemical. The conditions noted are these: 10 uM ATP, ATF2 substrate; read-out: JNK 2 Inhibition (IC50 in μM). The procedure:
In a 96-well plate, recombinant full length human JNK2 or JNK3 enzyme (40 ng) expressed in Sf21 cells (Upstate) was incubated with the substrate ATF2 (3 uM) for 1 hour in the presence of 10 uM ATP. […] IC50 calculations were plotted using a nonlinear regression curve fit.

T2 sequence (Q9Y233 1-779 isoform Q9Y233-1): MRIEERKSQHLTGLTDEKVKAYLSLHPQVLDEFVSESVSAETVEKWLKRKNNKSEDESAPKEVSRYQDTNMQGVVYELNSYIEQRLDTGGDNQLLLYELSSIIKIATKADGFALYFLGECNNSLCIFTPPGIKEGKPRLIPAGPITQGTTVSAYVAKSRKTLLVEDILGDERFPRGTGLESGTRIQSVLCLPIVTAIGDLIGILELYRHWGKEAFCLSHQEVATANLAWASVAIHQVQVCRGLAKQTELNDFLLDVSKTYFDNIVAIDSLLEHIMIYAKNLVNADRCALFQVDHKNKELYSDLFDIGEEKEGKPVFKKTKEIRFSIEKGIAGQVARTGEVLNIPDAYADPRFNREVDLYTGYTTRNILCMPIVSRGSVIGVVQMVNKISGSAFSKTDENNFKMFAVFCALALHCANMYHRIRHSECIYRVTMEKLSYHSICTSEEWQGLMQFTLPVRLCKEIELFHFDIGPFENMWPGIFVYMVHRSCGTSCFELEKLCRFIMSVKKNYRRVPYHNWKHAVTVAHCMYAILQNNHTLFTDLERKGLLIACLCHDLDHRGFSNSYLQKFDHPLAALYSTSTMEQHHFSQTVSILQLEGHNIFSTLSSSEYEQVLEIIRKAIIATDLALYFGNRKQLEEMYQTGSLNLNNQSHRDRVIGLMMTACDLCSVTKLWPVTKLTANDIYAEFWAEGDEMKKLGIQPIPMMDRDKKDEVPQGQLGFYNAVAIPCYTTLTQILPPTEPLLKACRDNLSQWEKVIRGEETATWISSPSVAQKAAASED
T1 sequence (Q07343 330-659 limits assumed): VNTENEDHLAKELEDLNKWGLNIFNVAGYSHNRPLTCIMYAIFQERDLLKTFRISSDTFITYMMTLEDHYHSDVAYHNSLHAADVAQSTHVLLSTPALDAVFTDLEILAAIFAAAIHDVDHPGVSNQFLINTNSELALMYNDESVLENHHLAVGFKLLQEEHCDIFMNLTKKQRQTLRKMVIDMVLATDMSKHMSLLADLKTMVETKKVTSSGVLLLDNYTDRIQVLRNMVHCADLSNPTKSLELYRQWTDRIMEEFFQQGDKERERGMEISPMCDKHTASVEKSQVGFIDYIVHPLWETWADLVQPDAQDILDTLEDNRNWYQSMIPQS
T3 sequence (P53779 whole entry): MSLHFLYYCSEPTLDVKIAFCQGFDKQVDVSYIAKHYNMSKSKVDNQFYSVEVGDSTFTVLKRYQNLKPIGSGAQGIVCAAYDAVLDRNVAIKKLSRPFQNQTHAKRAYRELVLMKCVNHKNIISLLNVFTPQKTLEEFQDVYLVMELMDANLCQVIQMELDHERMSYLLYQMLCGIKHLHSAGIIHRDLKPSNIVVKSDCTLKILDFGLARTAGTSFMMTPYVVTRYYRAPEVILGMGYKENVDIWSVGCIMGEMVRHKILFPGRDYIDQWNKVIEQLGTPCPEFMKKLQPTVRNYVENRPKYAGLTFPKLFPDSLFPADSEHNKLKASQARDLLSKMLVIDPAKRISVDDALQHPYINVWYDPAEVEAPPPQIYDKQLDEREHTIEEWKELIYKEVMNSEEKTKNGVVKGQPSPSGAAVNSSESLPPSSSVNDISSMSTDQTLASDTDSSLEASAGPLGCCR
T4 sequence (P45984 whole entry): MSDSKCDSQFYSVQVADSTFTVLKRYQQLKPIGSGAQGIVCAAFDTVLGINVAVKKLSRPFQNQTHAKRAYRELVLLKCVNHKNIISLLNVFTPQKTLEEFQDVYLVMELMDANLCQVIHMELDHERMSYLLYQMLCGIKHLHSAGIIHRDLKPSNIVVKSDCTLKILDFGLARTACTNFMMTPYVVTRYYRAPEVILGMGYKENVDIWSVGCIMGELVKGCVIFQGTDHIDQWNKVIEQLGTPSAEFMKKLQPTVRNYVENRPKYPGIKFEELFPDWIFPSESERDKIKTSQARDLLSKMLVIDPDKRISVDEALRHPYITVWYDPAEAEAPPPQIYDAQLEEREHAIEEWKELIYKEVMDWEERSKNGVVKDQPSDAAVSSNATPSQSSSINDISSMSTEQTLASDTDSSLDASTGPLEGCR

Take `CC(C)c1nn2ccccc2c1-c1ccnc(N)c1` [AV105, 4-(-2-isopropylpyrazolo[1,5-a]pyridin-3-yl)pyridin-2-amine]: the IC50 in test [1] is 22 µM; in test [2] it was above 100 µM; in test [3] it was above 100 µM.

In the case of `CC(C)c1nn2ccccc2c1-c1ccnc(NC2CCCC2)c1` [AV1021, N-cyclopentyl-4-(-2-isopropylpyrazolo[1,5-a]pyridin-3-yl)pyridin-2-amine], the half-inhibitory concentration (IC50) is above 100 µM in test [1], 12 µM in test [2] and above 100 µM in test [3].

For `CC(C)c1nn2ccccc2c1-c1ccnc(NCCCN2CCN(C)CC2)n1` [AV1135, 4-(2-isopropylpyrazolo[1,5-a]pyridin-3-yl)-N-(3-(4-methylpiperazin-1-yl)propyl)pyrimidin-2-amine], the figures for the IC50 in test [1], in test [2] and in test [3] were above 100 µM, 19 µM and 83 µM, respectively. In addition, in test [4], the “IP CCI efficacy (Change in grams)” value is listed as 0 grams.

Consider `CC(C)c1nn2ccccc2c1-c1ccnc(N)n1` [AV1139, 4-(2-isopropylpyrazolo[1,5-a]pyridin-3-yl)pyrimidin-2-amine], for which the values for the concentration for half-maximal inhibition (IC50) in test [1], in test [2] and in test [3] were above 100 µM, above 100 µM and 18 µM, respectively. Moreover, in test [4], the “IP CCI efficacy (Change in grams)” value was found to be 0.21 grams.

For `CCC(CC)Nc1nccc(-c2c(C(C)C)nn3ccccc23)n1` [AV1155, 4-(2-isopropylpyrazolo[1,5-a]pyridin-3-yl)-N-(pentan-3-yl)pyrimidin-2-amine], the “PDE-4 inhibition (in words)” value in test [1] is “particularly effective”. In addition, the IC50 in test [1] worked out at 5.9 µM; in test [2] it was 42 µM; in test [3], 27 µM. In addition, the “IP CCI efficacy (Change in grams)” value in test [4] is 0.67 grams.

For the molecule `CC(C)Nc1nccc(-c2c(C(C)(C)C)nn3ccccc23)n1` [AV1157, 4-(2-tert-butylpyrazolo[1,5-a]pyridin-3-yl)-N-isopropylpyrimidin-2-amine], the IC50 in test [1], in test [2] and in test [3] was above 100 µM in each case.

Take `CC(C)c1nn2ccccc2c1-c1ccnc(NC2CCNC2)n1` (centres unmarked) [AV1159, 4-(2-isopropylpyrazolo[1,5-a]pyridin-3-yl)-N-(pyrrolidin-3-yl)pyrimidin-2-amine]: in test [4], the “IP CCI efficacy (Change in grams)” value is given as 0 grams.

Take `CC(C)Nc1nccc(-c2c(-c3cccc(F)c3)nn3ccccc23)n1` [AV1179, 4-(2-(3-fluorophenyl)pyrazolo[1,5-a]pyridin-3-yl)-N-isopropylpyrimidin-2-amine]: the half-inhibitory concentration (IC50) in test [1] is above 100 µM; in test [2] it was above 100 µM; in test [3] it was 0.2 µM. In addition, the “JNK-3 inhibition (in words)” value in test [3] (see Table 2) is reported as “particularly effective”.

With `CC(C)Nc1nccc(-c2cccc3cc(C(C)C)nn23)n1` [AV1185, N-isopropyl-4-(2-isopropylpyrazolo[1,5-a]pyridin-7-yl)pyrimidin-2-amine], the concentration for half-maximal inhibition (IC50) in test [1] was 57 µM; in test [2] it was above 100 µM; in test [3] it was above 100 µM.

On to `CC(C)c1cc2cccc(-c3ccnc(NC4CCCC4)n3)n2n1` [AV1186, N-cyclopentyl-4-(2-isopropylpyrazolo[1,5-a]pyridin-7-yl)pyrimidin-2-amine], for which the IC50 in test [2] and in test [3] was above 100 µM in each case.

With `CC(C)Nc1nccc(-c2cccc3ccnn23)n1` [AV1187, N-isopropyl-4-(pyrazolo[1,5-a]pyridin-7-yl)pyrimidin-2-amine], the IC50 in test [2] and in test [3] was above 100 µM each time.

For `c1cc(-c2ccnc(NC3CCCC3)n2)n2nccc2c1` [AV1188, N-cyclopentyl-4-(pyrazolo[1,5-a]pyridin-7-yl)pyrimidin-2-amine], the IC50 in test [2] and in test [3] was above 100 µM each time.

With `CC(C)c1nn2ccccc2c1-c1ccnc(NS(C)(=O)=O)n1` [AV1189], the concentration for half-maximal inhibition (IC50) in test [2] and in test [3] was above 100 µM each time.

With `CC(C)c1nn2ccccc2c1-c1ccnc(NS(=O)(=O)c2ccccc2)n1` [AV1190], the IC50 in test [1] was 40 µM; in test [3] it was above 100 µM.

For `Cc1nn2ccccc2c1-c1ccnc(NS(=O)(=O)c2ccsc2)n1` [AV1191], the concentration for half-maximal inhibition (IC50) in test [1] was 6.8 µM; in test [2] it was above 100 µM; in test [3] it was above 100 µM.

Turning to `O=S(=O)(Nc1nccc(-c2cnn3ccccc23)n1)c1ccccc1` [AV1193], the values for the concentration for half-maximal inhibition (IC50) in test [1], in test [2] and in test [3] were 9.4 µM, above 100 µM and 53 µM, respectively.

Consider `CC(C)c1nn2ccccc2c1-c1ccc(N)nc1` [AV1196, 5-(2-isopropylpyrazolo[1,5-a]pyridin-3-yl)pyridin-2-amine], for which, in test [1], the “PDE-4 inhibition (in words)” value was “particularly effective” and the IC50 was found to be 20.8 µM. Further, in test [2], the IC50 is 8.3 µM and the “PDE-10 inhibition (in words)” value is recorded as “particularly effective”. In test [3], the IC50 came to 68 µM.

With `CC(C)Nc1ccc(-c2c(C(C)C)nn3ccccc23)cn1` [AV1197, N-isopropyl-5-(2-isopropylpyrazolo[1,5-a]pyridin-3-yl)pyridin-2-amine], the values for the concentration for half-maximal inhibition (IC50) in test [1], in test [2] and in test [3] were 50.5 µM, 17 µM and above 100 µM, respectively.

For `CC(C)c1nn2ccccc2c1-c1ccc(NC2CCCC2)nc1` [AV1199, N-cyclopentyl-5-(2-isopropylpyrazolo[1,5-a]pyridin-3-yl)pyridin-2-amine], the IC50 in test [1] is 43 µM; in test [2] it was 7.1 µM; in test [3], above 100 µM. For the same molecule, the “PDE-10 inhibition (in words)” value in test [2] was “particularly effective”.

On to `CC(C)Nc1cc(-c2c(C(C)C)nn3ccccc23)ccn1` [AV1202, N-isopropyl-4-(-2-isopropylpyrazolo[1,5-a]pyridin-3-yl)pyridin-2-amine], for which the 50% inhibitory concentration (IC50) was above 100 µM in test [1], 13 µM in test [2] and above 100 µM in test [3].

Turning to `CC(C)c1nn2ccccc2c1-c1cnc(N)nc1` [AV1203, 5-(-2-isopropylpyrazolo[1,5-a]pyridin-3-yl)pyrimidin-2-amine], the half-inhibitory concentration (IC50) is 9.9 µM in test [1], 3.8 µM in test [2], above 10 µM in test [3] and above 100 µM in test [6]. Further, the concentration for a half-maximal effect (EC50) worked out at 0.3 µM in test [5] (read-out: MCP-1 BV-2 (EC50 in μM)) and 0.8 µM in test [5] (read-out: TNF-a BV-2 (EC50 in μM)).

In the case of `CC(C)Nc1ncc(-c2c(C(C)C)nn3ccccc23)cn1` [AV1206, N-isopropyl-5-(-2-isopropylpyrazolo[1,5-a]pyridin-3-yl)pyrimidin-2-amine], the IC50 in test [1] was 43 µM; in test [2], 7.4 µM; in test [3] it was above 100 µM.

For the molecule `CC(C)c1nn2ccccc2c1-c1cnc(NC2CCCC2)nc1` [AV1207, N-cyclopentyl-5-(-2-isopropylpyrazolo[1,5-a]pyridin-3-yl)pyrimidin-2-amine], the values for the IC50 in test [1], in test [2] and in test [3] were 24 µM, 3.2 µM and above 100 µM, respectively.

Turning to `CC(C)c1nn2ccccc2c1-c1ccnc(N(C)C)c1` [AV1208, 4-(-2-isopropylpyrazolo[1,5-a]pyridin-3-yl)-N,N-dimethylpyridin-2-amine], the IC50 in test [1] was 3.9 µM; in test [2] it was 5.4 µM; in test [3] it was above 100 µM.

On to `COc1ccc(Cc2nccc3cc(OC)c(OC)cc23)cc1OC` [Papaverine, reference compound], for which the “IP CCI efficacy (Change in grams)” value in test [4] is given as 1.35 grams.

One may read the IC50 as the concentration that gives 50% inhibition. In general, EC50 refers to the midpoint of the concentration-response curve.
